PubChem BioAssay (NCI)
Where “and” joins values, the source holds several entries; their conditions need not be identical. Equal entries are not always repeated.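 Five compound concentrations were applied to cells in 96-well plates for 48 hours; endpoints were derived by simple linear interpolation of the resulting dose-response curve. GI50: concentration for 50% inhibition of growth. At the TGI there is no net growth.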

Key:
Assay in all cases: NCI anticancer screen, dose series, 48 h
[1] = system: 786-0 renal
[2] = system: A498 renal
[3] = system: A549 NSCLC
[4] = system: ACHN renal
[5] = system: BT-549 breast
[6] = system: CAKI-1 renal
[7] = system: CCRF-CEM leukemia
[8] = system: COLO 205 colon
[9] = system: DU-145 prostate
[10] = system: EKVX NSCLC
[11] = system: HCC-2998 colon
[12] = system: HCT-116 colon
[13] = system: HCT-15 colon
[14] = system: HL-60(TB) leukemia
[15] = system: HOP-62 NSCLC
[16] = system: HOP-92 NSCLC
[17] = system: HS 578T breast
[18] = system: HT29 colon
[19] = system: IGROV1 ovarian
[20] = system: K-562 leukemia
[21] = system: KM12 colon
[22] = system: LOX IMVI melanoma
[23] = system: M14 melanoma
[24] = system: MALME-3M melanoma
[25] = system: MCF7 breast
[26] = system: MDA-MB-231 breast
[27] = system: MDA-MB-435
[28] = system: MOLT-4 leukemia
[29] = system: NCI-H226 lung
[30] = system: NCI-H23 lung
[31] = system: NCI-H460 lung
[32] = system: NCI-H522 lung
[33] = system: NCI/ADR-RES ovarian
[34] = system: OVCAR-3 ovarian
[35] = system: OVCAR-4 ovarian
[36] = system: OVCAR-5 ovarian
[37] = system: OVCAR-8 ovarian
[38] = system: PC-3 prostate
[39] = system: RPMI-8226 leukemia
[40] = system: RXF 393 renal
[41] = system: SF-268 CNS
[42] = system: SF-295 CNS
[43] = system: SF-539 CNS
[44] = system: SK-MEL-2 melanoma
[45] = system: SK-MEL-28 melanoma
[46] = system: SK-MEL-5 melanoma
[47] = system: SK-OV-3 ovarian
[48] = system: SN12C renal
[49] = system: SNB-19 CNS
[50] = system: SNB-75 CNS
[51] = system: SR leukemia
[52] = system: SW-620 colon
[53] = system: T-47D breast
[54] = system: TK-10 renal
[55] = system: U251 CNS
[56] = system: UACC-257 melanoma
[57] = system: UACC-62 melanoma
[58] = system: UO-31 renal

**Q.** For `CC(C)[C@](O)(c1ccc2cc(OC(F)F)c(OC(F)F)cc2c1)c1cn[nH]n1`, which GI50 [1] is on record?
**A.** 17.8 µM and 16.9 µM

**Q.** What about the TGI [1] of the same molecule?
**A.** 39.4 µM and 39.9 µM

**Q.** And the GI50 [2]?
**A.** 14.4 µM and 15.4 µM

**Q.** And the TGI [2]?
**A.** 28.2 µM and 29.2 µM

**Q.** What about the GI50 [3] of the same molecule?
**A.** 23.5 µM and 19.5 µM

**Q.** What about the TGI [3] of the same molecule?
**A.** 59.7 µM and 47.6 µM

**Q.** And the GI50 [4]?
**A.** 25.7 µM and 19.3 µM

**Q.** What about the TGI [4] of the same molecule?
**A.** 93.3 µM and 54 µM

**Q.** And the GI50 [5]?
**A.** 15.6 µM and 13.3 µM

**Q.** And the TGI [5]?
**A.** 31.1 µM and 28.5 µM

**Q.** What about the GI50 [6] of the same molecule?
**A.** 13 µM and 10.2 µM

**Q.** What about the TGI [6] of the same molecule?
**A.** 37 µM and 34.5 µM

**Q.** And the GI50 [7]?
**A.** 23.8 µM and 24.2 µM

**Q.** And the TGI [7]?
**A.** 59 µM and 85.1 µM

**Q.** And the GI50 [8]?
**A.** 17 µM and 21.5 µM

**Q.** And the TGI [8]?
**A.** 33.9 µM and 43.2 µM

**Q.** What about the GI50 [9] of the same molecule?
**A.** 19.1 µM and 16.4 µM

**Q.** And the TGI [9]?
**A.** 45.6 µM and 32 µM

**Q.** What about the GI50 [10] of the same molecule?
**A.** 14 µM and 13.6 µM

**Q.** What about the TGI [10] of the same molecule?
**A.** 44.8 µM and 39.9 µM

**Q.** And the GI50 [11]?
**A.** 18.2 µM and 18.4 µM

**Q.** What about the TGI [11] of the same molecule?
**A.** 36.3 µM and 34.5 µM

**Q.** What about the GI50 [12] of the same molecule?
**A.** 15.2 µM and 15 µM

**Q.** What about the TGI [12] of the same molecule?
**A.** 31.3 µM and 30.2 µM

**Q.** What about the GI50 [13] of the same molecule?
**A.** 13.9 µM and 14.4 µM

**Q.** And the TGI [13]?
**A.** 31.5 µM and 31.8 µM

**Q.** What about the GI50 [14] of the same molecule?
**A.** 26.8 µM and 25 µM

**Q.** And the TGI [14]?
**A.** 68.5 µM and 75.7 µM

**Q.** And the GI50 [15]?
**A.** 17.2 µM and 15.6 µM

**Q.** What about the TGI [15] of the same molecule?
**A.** 36.9 µM and 31.5 µM

**Q.** What about the GI50 [16] of the same molecule?
**A.** 13.6 µM and 13.5 µM

**Q.** What about the TGI [16] of the same molecule?
**A.** 32.2 µM and 29.3 µM

**Q.** What about the GI50 [17] of the same molecule?
**A.** 22.1 µM and 15.4 µM

**Q.** And the TGI [17]?
**A.** 82.4 µM and 51.2 µM

**Q.** And the GI50 [18]?
**A.** 16 µM and 20.8 µM

**Q.** What about the TGI [18] of the same molecule?
**A.** 36.3 µM and 46.6 µM

**Q.** And the GI50 [19]?
**A.** 24.6 µM and 17.8 µM

**Q.** What about the TGI [19] of the same molecule?
**A.** 70.7 µM and 44.5 µM

**Q.** What about the GI50 [20] of the same molecule?
**A.** 20.1 µM and 24.8 µM

**Q.** And the TGI [20]?
**A.** 66.3 µM and 80.7 µM

**Q.** And the GI50 [21]?
**A.** 20.3 µM and 15.2 µM

**Q.** And the TGI [21]?
**A.** 41.7 µM and 31.2 µM

**Q.** And the GI50 [22]?
**A.** 15.7 µM and 14.8 µM

**Q.** And the TGI [22]?
**A.** 29.1 µM and 28.9 µM

**Q.** And the GI50 [23]?
**A.** 18.5 µM and 15.4 µM

**Q.** What about the TGI [23] of the same molecule?
**A.** 42.2 µM and 32.6 µM

**Q.** And the GI50 [24]?
**A.** 18.4 µM and 21 µM

**Q.** What about the TGI [24] of the same molecule?
**A.** 42.6 µM and 44.7 µM

**Q.** What about the TGI [25] of the same molecule?
**A.** 22.4 µM and 35.9 µM

**Q.** What about the GI50 [26] of the same molecule?
**A.** 20.5 µM and 12.3 µM

**Q.** And the TGI [26]?
**A.** 38.9 µM and 28.6 µM

**Q.** And the GI50 [27]?
**A.** 16 µM and 15.4 µM

**Q.** And the TGI [27]?
**A.** 32.6 µM and 33 µM

**Q.** What about the GI50 [28] of the same molecule?
**A.** 30.1 µM and 17.1 µM

**Q.** And the TGI [28]?
**A.** 82.7 µM and 62 µM

**Q.** And the GI50 [29]?
**A.** 23.1 µM and 18.9 µM

**Q.** What about the TGI [29] of the same molecule?
**A.** 55.4 µM and 46.1 µM

**Q.** What about the GI50 [30] of the same molecule?
**A.** 16.8 µM and 15.8 µM

**Q.** And the TGI [30]?
**A.** 40.1 µM and 35.2 µM

**Q.** What about the GI50 [31] of the same molecule?
**A.** 18.9 µM and 17.7 µM

**Q.** What about the TGI [31] of the same molecule?
**A.** 34.9 µM and 34.3 µM

**Q.** And the GI50 [32]?
**A.** 16.4 µM and 14.8 µM

**Q.** What about the TGI [32] of the same molecule?
**A.** 36.5 µM and 35.4 µM

**Q.** And the GI50 [33]?
**A.** 20.1 µM and 21.5 µM

**Q.** And the TGI [33]?
**A.** 52.8 µM and 53.5 µM

**Q.** And the GI50 [34]?
**A.** 18.7 µM and 14 µM

**Q.** What about the TGI [34] of the same molecule?
**A.** 36.6 µM and 29.1 µM

**Q.** What about the GI50 [35] of the same molecule?
**A.** 21.9 µM and 15 µM

**Q.** What about the TGI [35] of the same molecule?
**A.** > 100 µM and 54.4 µM

**Q.** And the GI50 [36]?
**A.** 21.7 µM and 22.9 µM

**Q.** What about the TGI [36] of the same molecule?
**A.** 65.1 µM and 64.9 µM

**Q.** And the GI50 [37]?
**A.** 29.6 µM and 26.4 µM

**Q.** And the TGI [37]?
**A.** 81.1 µM and 62.5 µM

**Q.** What about the GI50 [38] of the same molecule?
**A.** 17.5 µM and 14.2 µM

**Q.** And the TGI [38]?
**A.** 35.4 µM and 33.4 µM

**Q.** And the GI50 [39]?
**A.** 24.9 µM and 18.2 µM

**Q.** What about the TGI [39] of the same molecule?
**A.** 68.4 µM and 53 µM

**Q.** And the GI50 [40]?
**A.** 15 µM and 14.4 µM

**Q.** And the TGI [40]?
**A.** 29.1 µM and 28.3 µM

**Q.** And the GI50 [41]?
**A.** 18.7 µM and 14.4 µM

**Q.** What about the TGI [41] of the same molecule?
**A.** 50.3 µM and 34.6 µM

**Q.** And the GI50 [42]?
**A.** 15.8 µM and 14 µM

**Q.** What about the TGI [42] of the same molecule?
**A.** 33.4 µM and 29 µM

**Q.** And the GI50 [43]?
**A.** 16.5 µM and 16.2 µM

**Q.** What about the TGI [43] of the same molecule?
**A.** 32.4 µM and 32.3 µM

**Q.** What about the GI50 [44] of the same molecule?
**A.** 18.7 µM and 17.1 µM

**Q.** And the TGI [44]?
**A.** 36.6 µM and 35 µM

**Q.** What about the GI50 [45] of the same molecule?
**A.** 18.5 µM and 19.6 µM

**Q.** And the TGI [45]?
**A.** 36.9 µM and 40.8 µM

**Q.** And the GI50 [46]?
**A.** 17.1 µM and 16.9 µM

**Q.** And the TGI [46]?
**A.** 30.9 µM and 30.7 µM

**Q.** And the GI50 [47]?
**A.** 14.6 µM and 17.7 µM

**Q.** What about the TGI [47] of the same molecule?
**A.** 38.6 µM and 45.5 µM

**Q.** What about the GI50 [48] of the same molecule?
**A.** 19.2 µM and 15.6 µM

**Q.** What about the TGI [48] of the same molecule?
**A.** 36.8 µM and 32.2 µM

**Q.** What about the GI50 [49] of the same molecule?
**A.** 22 µM and 15.7 µM

**Q.** And the TGI [49]?
**A.** 51 µM and 41.8 µM

**Q.** What about the GI50 [50] of the same molecule?
**A.** 11.8 µM and 9.7 µM

**Q.** And the TGI [50]?
**A.** 36.1 µM and 27.1 µM

**Q.** What about the GI50 [51] of the same molecule?
**A.** 24.7 µM and 12.1 µM

**Q.** And the TGI [51]?
**A.** 56.7 µM and 44.9 µM

**Q.** What about the GI50 [52] of the same molecule?
**A.** 21 µM and 18.5 µM

**Q.** What about the TGI [52] of the same molecule?
**A.** 44.9 µM and 38.5 µM

**Q.** What about the GI50 [53] of the same molecule?
**A.** 3.73 µM and 15.5 µM

**Q.** What about the TGI [53] of the same molecule?
**A.** 53.4 µM and 71.1 µM

**Q.** What about the GI50 [54] of the same molecule?
**A.** 17 µM and 12.6 µM

**Q.** What about the TGI [54] of the same molecule?
**A.** 38.4 µM and 35.7 µM

**Q.** What about the GI50 [55] of the same molecule?
**A.** 16.5 µM and 16.1 µM

**Q.** What about the TGI [55] of the same molecule?
**A.** 33.5 µM and 32 µM

**Q.** And the GI50 [56]?
**A.** 21.5 µM and 21.8 µM

**Q.** And the TGI [56]?
**A.** 47.7 µM and 46.1 µM

**Q.** And the GI50 [57]?
**A.** 20.1 µM and 13 µM

**Q.** And the TGI [57]?
**A.** 39.6 µM and 29.8 µM

**Q.** What about the GI50 [58] of the same molecule?
**A.** 12.8 µM and 12.1 µM

**Q.** What about the TGI [58] of the same molecule?
**A.** 29.1 µM and 30.1 µM
